According to patent US20090241205A1, “METHOD FOR IDENTIFYING CRMP MODULATORS” (priority 2006, published 2009):
“Also recorded” adds a separate entry of the source.

Tests used:
[1] = test system: neural derivates of murine embryonal stem cells; test: NMDA excitotoxic insult, survival of neural derivates of murine embryonal stem cells (calcium imaging); format: cell-based; settings: 200 μM NMDA; for survival rate after excitotoxic insult: 100 μM compound, NMDA alone 15.6% (16%)
[2] = target: T1, CRMP-2 (Rattus norvegicus, UniProt P47942); test: biological pull-down (Affinity Fishhook) with biotinylated affinity reagents in rat brain; format: binding; settings: biotinyl affinity reagent
T1 construct: from tissue; host or cells: rat brain (extract/fractions)
Description: Biological pull-down experiments (“Affinity Fishhook”) were performed by incubating a set of four Lacosamide-related affinity-reagents with biotinyl-moieties (R)—N-Benzyl-2-acetamido-6-[Nε-(biotinyl)-2-isothiocynato-6-aminohexanamido]-aminohexanamide((R)-7), (S)—N-Benzyl-2-acetamido-6-[Nε-(biotinyl)-2-isothiocynato-6-aminohexanamido]-aminohexanamide((S)-7), (R)—N-{3-[Nε-(biotinyl)-2-isothiocynato-6-aminohexanamide]-benzyl}-2-acetamido-3-methoxypropion-amide((R)-34) and (R)—N-{4-[Nε-(biotinyl)-2-isothiocynato-6-aminohexanamide]-benzyl}-2-acetamido-3-methoxypropion-amide((R)-35) to rat brain.
(a) The pattern of affinity captured proteins is completely different from raw extracts and controls and the protein is consistently captured under a variety of conditions.

[3] = target: T2, human CRMP-2 (Homo sapiens, UniProt Q16555); test: competition protein binding with [14C]-labeled lacosamide, crude membranes from CRMP-2 transfected Xenopus oocytes
T2 construct: expressed in transfected cells; host or cells: Xenopus oocytes (crude membranes)
Description: It was therefore the object of the present invention to provide a method of identifying compounds suitable for the prevention, alleviation or/and treatment of diseases or conditions which can be treated by Lacosamide, based on the mode of action of Lacosamide. […] The binding was confirmed in experiments employing heterologously expressed human CRMP-2 in Xenopus oocytes.
Based on the results of the previous study, the present binding curve ranged from 1 to 100 μM (10 concentrations, in triplicates).

[4] = test system: hippocampal primary cells; test: axon growth in hippocampal primary cells (Tau-1 immunofluorescence); format: cell-based; settings: for BDNF-induced axonal growth: 200 ng/ml BDNF
Description: It could be shown that the neurotrophins NT3 and BDNF stimulate axonal outgrowth in a primary culture of embryonal hippocampal neurons. Quantification of neurite outgrowth was performed by immunofluorescence microscopy employing an antibody against the axonal marker protein Tau-1.

In the case of `COC[C@H](NC(C)=O)C(=O)NCc1ccccc1` (single isomer, unassigned) [S-enantiomer of lacosamide], the “survival rate after excitotoxic insult” value ([1]; listed as S-enantiomer) is reported as “only a minor effect”.
With `CC(=O)N[C@H](CCCCNC(=O)C(CCCCNC(=O)CCCC[C@@H]1SC[C@@H]2NC(=O)N[C@@H]21)N=C=S)C(=O)NCc1ccccc1` (stereo partly drawn) [(R)-7, (R)—N-Benzyl-2-acetamido-6-[Nε-(biotinyl)-2-isothiocynato-6-aminohexanamido]-aminohexanamide] the “proteins captured in pull-down” value [2] was “enrichment of an overlapping set of proteins, including collapsing response mediator protein (CRMP-2)”.
In the case of `COC[C@@H](NC(C)=O)C(=O)NCc1cccc(NC(=O)C(CCCCNC(=O)CCCCC2SCC3NC(=O)NC32)N=C=S)c1` (stereo partly drawn) [(R)-34, (R)—N-{3-[Nε-(biotinyl)-2-isothiocynato-6-aminohexanamide]-benzyl}-2-acetamido-3-methoxypropion-amide], the “proteins captured in pull-down” value [2] is reported as “enrichment of an overlapping set of proteins, including collapsing response mediator protein (CRMP-2)”.
For `COC[C@@H](NC(C)=O)C(=O)NCc1ccc(NC(=O)C(CCCCNC(=O)CCCCC2SCC3NC(=O)NC32)N=C=S)cc1` (stereo partly drawn) [(R)-35, (R)—N-{4-[Nε-(biotinyl)-2-isothiocynato-6-aminohexanamide]-benzyl}-2-acetamido-3-methoxypropion-amide], the “proteins captured in pull-down” value [2] was “enrichment of an overlapping set of proteins, including collapsing response mediator protein (CRMP-2)”.
In the case of `CC(=O)N[C@@H](CCCCNC(=O)C(CCCCNC(=O)CCCC[C@@H]1SC[C@@H]2NC(=O)N[C@@H]21)N=C=S)C(=O)NCc1ccccc1` (stereo partly drawn) [(S)-7, (S)—N-Benzyl-2-acetamido-6-[Nε-(biotinyl)-2-isothiocynato-6-aminohexanamido]-aminohexanamide], the “proteins captured in pull-down” value [2] is reported as “enrichment of an overlapping set of proteins, including collapsing response mediator protein (CRMP-2)”.
With `COC[C@@H](NC(C)=O)C(=O)NCc1ccccc1` [Lacosamide, (R)-2-acetamide-N-benzyl-3-methoxypropionamide] the Kd [3] was less than 5 µM, the Bmax ([3]; [14C]-lacosamide, binding curve 1 to 100 μM) was “about 200 pM/mg” and the specific binding ([3]; crude membranes from CRMP-2 transfected Xenopus oocytes, 1 to 100 μM) was “competitive and specific binding was observed”. For the same molecule, the NT3-induced axonal growth ([4]; 50 ng/ml NT3, 100 μM Lacosamide) was “significantly decreases”, the BDNF-induced axonal growth ([4]; 1 μM Lacosamide) was “significantly decreases” and the BDNF-induced axonal growth ([4]; 100 μM Lacosamide) was “significantly decreases”. The “basal axonal outgrowth (axon length)” value ([4]; Lacosamide 1-200 μM, no neurotrophin) was “does not significantly change; also recorded: did not significantly change”, the NT3-induced neuronal outgrowth ([4]; concentration not stated in text (FIG. 2)) was “attenuated” and the BDNF-induced neuronal outgrowth ([4]; concentration not stated in text (FIG. 3)) was “attenuated”. The “survival rate after excitotoxic insult” value [1] was 71% and the “neuroprotective effect after pre-incubation with CRMP-2 siRNA” value ([1]; CRMP-2 siRNA pre-incubation) was “diminished”.
